According to patent US8119159B2, “Solid oral dosage form containing an enhancer” (Merrion Research III Limited, priority 1999, dated 2012):
One block for each compound: values may come before it.

Columns and labels:
[1] = test system: plasma anti-factor Xa activity; experiment: Intraduodenal LMWH with enhancers in rats (open loop), plasma anti-factor Xa; type: in vivo, rat; conditions: intraduodenal 1000 IU, absence of enhancer
Caco-2 monolayers [2] = experiment: TEER of Caco-2 monolayers with MCFA sodium salts and 3H-TRH; type: cell-based; conditions: Caco-2 monolayers over 2 hours, sodium salts with 3H-TRH, concentrations of Table 1
Experimental: (§1) Cell Culture: Caco-2 cells were cultured in Dulbecco's Modified Eagles Medium (DMEM) 4.5 g/L glucose supplemented with 1% (v/v) non-essential amino acids; 10% fetal calf serum and 1% penicillin/streptomycin. […] The cells were grown and expanded in standard tissue culture flasks and were passaged once they attained 100% confluence. The Caco-2 cells were then seeded on polycarbonate filter inserts (Costar; 12 mm diameter, 0.4 μm pore size) at a density of 5×10^5 cells/cm^2 and incubated in six well culture plates with a medium change every second day. Confluent monolayers between day 20 and day 30 seeding on filters and at passages 30-40 were used throughout these studies.
(§2) Transepithelial Transport Studies: The effects of sodium salts of various MCFAs on the transport of ^3H-TRH (apical to basolateral flux) was examined as follows: 15.0 μCi/ml (0.2 μM) ^3H-TRH was added apically at time zero for TRH flux experiments. The transport experiments were performed in Hank's Balanced Salt Solution (HBSS) containing 25 mM N-[2-hydroxyethyl]-piperazine-N′-[2-ethanesulfonic acid] (HEPES) buffer, pH 7.4 at 37° C. Due to variations in solubilities, various concentrations of the different MCFA sodium salts and various apical buffers were used as shown in Table 1. In all cases the basolateral chamber contained regular HBSS+HEPES.
(§3) After removing the cell culture medium, the monolayers were placed in wells containing prewarmed HBSS (37° C.); 1 ml apically and 2 ml basolaterally. Monolayers were incubated at 37° C. for 30 mins. Then at time zero, apical HBSS was replaced with the relevant apical test solution containing the radiolabelled compounds with and without the enhancer compound. […] The plates were placed on an orbital shaker in an incubator (37° C.). Transport across the monolayers was followed by basolateral sampling (1 ml) at 30 min. intervals up to 120 mins. At each 30 min. interval each insert was transferred to a new well containing 2 ml fresh prewarmed HBSS. Apical stock radioactivity was determined by taking 10 μl samples at t=0 and t=120 mins. […] Mean values for ^3H-TRH concentrations were calculated for the apical and basolateral solutions at each time point.

Caco-2 monolayers [3] = experiment: 3H-TRH apical to basolateral transport (Papp) across Caco-2 monolayers; type: in vitro ADME; conditions: sodium salts at the concentrations of Table 1
Experimental: as §1, §2
as §3, with “At each 30 min. interval each insert was transferred to a new well containing 2 ml fresh prewarmed HBSS.” left out

[4] = Closed loop rat model, intraduodenal TRH with enhancer, serum TRH; type: in vivo; conditions: interduodenal bolus 500 or 1000 μg TRH with 35 mg enhancer
Experimental: Male Wistar rats (weight range 250 g-350 g) were anaesthetized with ketamine hydrochloride/acepromazine. […] All intraduodenal dose volumes (for samples and control) were 1 ml/kg. The proximal end of the segment was ligated and the loop was sprayed with isotonic saline (37° C.) to provide moisture and then replaced in the abdominal cavity avoiding distension. The incision was closed with surgical clips. A group of animals were administered TRH in PBS (100 μg in 0.2 ml) by subcutaneous injection as a reference.

[5] = oral conventional forms, cited from earlier work
[6] = test system: plasma anti-factor Xa activity; experiment: Closed-loop rat segment, intraileal USP heparin with enhancer, plasma anti-factor Xa; conditions: USP heparin 1000 iu
Experimental: The procedure carried out in Example 1 (a) above was repeated using USP heparin in place of TRH and dosing intraileally rather than intraduodenally. A mid-line incision was made in the abdomen and the distal end of the ileum located (about 10 cm proximal to the ileo-caecal junction). 7-9 cm of tissue was isolated and the distal end ligated, taking care to avoid damage to surrounding blood vessels. Heparin absorption as indicated by […] (APTT) response was measured by placing a drop of whole blood (freshly sampled from the tail artery) on the test cartridge of Biotrack 512 coagulation monitor. APTT measurements were taken at various time points.
Citrated blood samples were centrifuged at 3000 rpm for 15 mins. to obtain plasma for anti-factor Xa analysis. […] The control in each case is a solution of the same heparin concentration containing no enhancer.

[7] = test system: plasma anti-factor Xa activity; experiment: Dog study of oral heparin/enhancer tablets, anti-factor Xa and clinical assessment; type: in vivo; conditions: dogs, IR formulations, equivalent dose of heparin
Experimental: Tablets from batches 3, 7 and 15 in Tables 5 and 6 above were dosed orally to groups of five dogs in a single dose crossover study. […] Blood samples for anti-factor Xa analysis were collected from the jugular vein at various time points.

[8] = Closed-loop rat segment, intraileal USP heparin with enhancer, APTT response; type: in vivo; conditions: USP heparin 1000 iu, sodium caprate 10 and 35 mg
Source text: APTT measurements were taken at various time points.

in vivo = experiment: in vivo
Experimental: Beagle dogs (10-15 Kg) were sedated with medetomidine (80 μg/kg) and an endoscope was inserted via the mouth, esophagus and stomach into the duodenum. The test solutions (10 ml), comprising leuprolide acetate (Mallinckrodt Inc, St. Louis, Mo.) with or without enhancer reconstituted in deionized water were administered intraduodenally via the endoscope. Following removal of the endoscope, sedation was reversed using atipamezole (400 μg/kg). The parenteral reference solutions comprising 1 mg Leuprolide reconstituted in 0.5 ml sterile water were administered intravenously and subcutaneously respectively.

serum levels of TRH over the control TRH solution [4]: significantly increases
Compound: CCCCCCCC(=O)[O-].[Na+] [Batch C8, sodium caprylate]

effect on permeability constant Papp for 3H-TRH compared to the control (Caco-2 monolayers [3]): considerable increases
Compound: CCCCCCCCCCCCCC(=O)[O-].[Na+] [Batch C14]
effect on TEER compared to the control (Caco-2 monolayers [2]): minimal reduction in TEER

Continued, compound first:

Compound: parnaparin sodium [LMWH]
systemic delivery of LMWH [1]: relatively poor

Compound: CCCCCCCCCCCC(=O)[O-].[Na+] [Batch C12, sodium laurate]
effect on TEER compared to the control (Caco-2 monolayers [2]): some cell damage (reduction in TEER) | effect on permeability constant Papp for 3H-TRH compared to the control (Caco-2 monolayers [3]): considerable increases

Compound: NCCCC(O)(P(=O)(O)O)P(=O)(O)O [alendronate]
further share of the dose absorbed excreted in the urine ([5]; over the next 64 hours): 5% | share of the dose absorbed excreted in the urine ([5]; within 8 hours): 40%

Compound: CCCCCCCCCC(=O)[O-].[Na+] [Batch C10, sodium caprate]
anti-factor Xa activity relative to control heparin solution ([6]; enhancer 10 mg dose): significant increase | anti-factor Xa activity relative to control heparin solution ([6]; enhancer 35 mg dose): significant increase | effect on TEER compared to the control (Caco-2 monolayers [2]): minimal reduction in TEER | anti-factor Xa response, NaC10 relative to NaC8 enhancer [7]: larger anti-factor Xa response | heparin absorption by APTT response vs control heparin solution [8]: significant increase in absorption | serum levels of TRH over the control TRH solution [4]: significantly increases | effect on permeability constant Papp for 3H-TRH compared to the control (Caco-2 monolayers [3]): considerable increases

Compound: CCNC(=O)[C@@H]1CCCN1C(=O)[C@H](CCCNC(=N)N)NC(=O)[C@H](CC(C)C)NC(=O)[C@@H](CC(C)C)NC(=O)[C@H](Cc1ccc(O)cc1)NC(=O)[C@H](CO)NC(=O)[C@H](Cc1c[nH]c2ccccc12)NC(=O)[C@H](Cc1c[nH]cn1)NC(=O)[C@@H]1CCC(=O)N1 [leuprolide, leuprolide acetate]
bioavailability (in vivo): 8% | systemic delivery of leuprolide (in vivo; dog, in vivo): negligible

Compound: CCCCCCCCCCCCCCCCCC(=O)[O-].[Na+] [Batch C18]
effect on TEER compared to the control (Caco-2 monolayers [2]): minimal reduction in TEER
